Legend:
[1] = Selectivity index, ratio of IC50 for rat L6 cells to IC50 for Trypanosoma cruzi Tulahuen C4 intracellular amastigote infected in rat L6 cells; type: toxicity, cell-based; settings: read-out: Ratio IC50
[2] = Selectivity index, ratio of IC50 for rat L6 cells to IC50 for erythrocytic stage Plasmodium falciparum NF54; type: toxicity; settings: read-out: Ratio IC50
[3] = Cytotoxicity against rat L6 cells assessed as cell growth inhibition incubated for 70 hrs by Alamar Blue staining based […]; type: toxicity
Leishmania donovani = assay: Antiprotozoal activity against Leishmania donovani MHOM/ET/67/L82 axenic amastigote assessed as parasite growth inhibition incubated for resazurin dye based fluorometry; type: functional, organism-based
Plasmodium falciparum = assay: Antiprotozoal activity against erythrocytic stage Plasmodium falciparum NF54 assessed as parasite growth inhibition incubated for 48 hrs by [3H]hypoxanthine incorporation assay; type: functional, organism-based
[4] = test system: Trypanosoma brucei rhodesiense; assay: Antiprotozoal activity against Trypanosoma brucei rhodesiense STIB 900 bloodstream trypomastigote assessed as parasite growth inhibition incubated for 70 hrs by resazurin dye based assay; type: functional, organism-based; settings: STIB 900, 70 h
[5] = Selectivity index, ratio of IC50 for rat L6 cells to IC50 for Trypanosoma brucei rhodesiense STIB 900 bloodstream trypomastigote; type: toxicity; settings: read-out: Ratio IC50
[6] = Selectivity index, ratio of IC50 for rat L6 cells to IC50 for Leishmania donovani MHOM/ET/67/L82 axenic amastigote; type: toxicity; settings: read-out: Ratio IC50
Trypanosoma cruzi = assay: Antiprotozoal activity against Trypanosoma cruzi Tulahuen C4 intracellular amastigote infected in rat L6 cells assessed as parasite growth inhibition incubated for 96 hrs in presence of CPRG/Nonidet by photometry; type: functional, organism-based; settings: Tulahuen C4, L6, 96 h

SMILES | IC50 [4] [µM] | IC50 (Trypanosoma cruzi) [µM] | selectivity ratio [1] | selectivity ratio [2] | IC50 at 70 h [3] [µM] | IC50 (Leishmania donovani) [µM] | IC50 (Plasmodium falciparum) [µM] | selectivity ratio [5] | selectivity ratio [6]
CC1(C)CCc2c(ccc(CNCCc3ccccc3)c2O)O1 | 6.5 | 53 | 0.7 | 3600 | 36 | 141 | 0.01 | 6 | 0.3
CC1(C)CCc2c(ccc(CNCCCCc3ccccc3)c2O)O1 | 3.4 | 18 | 0.8 | 83 | 15 | 42 | 0.18 | 4 | 0.4
CC1(C)CCc2c(ccc(CNCCCc3ccccc3)c2O)O1 | 3.4 | 31 | 0.9 | 180 | 27 | 52 | 0.15 | 8 | 0.5
CC1(C)CCc2cc(CNCc3ccccc3)c(O)cc2O1 |  |  |  | 222 | 22 |  | 0.099 |  | 
CC1(C)CCc2cc(C(O)CNCc3ccccc3)c(O)cc2O1 (centres undefined) | 6.4 | 48 | 1 | 460 | 46 | 54 | 0.1 | 7 | 0.9
CC1(C)CCc2c(ccc(CNCc3ccccc3)c2O)O1 | 22 | 57 | 1 | 1130 | 60 | 52 | 0.053 | 3 | 1
CC1(C)CCc2cc(C(O)CNCCCc3ccccc3)c(O)cc2O1 (centres undefined) | 5.3 | 28 | 0.9 | 1470 | 25 | 36 | 0.017 | 5 | 0.7
CC1(C)C=Cc2cc(CNCCCCc3ccccc3)c(O)cc2O1 | 1.09 | 17 | 1 | 241 | 19 | 25 | 0.079 | 17 | 0.8
CC1(C)CCc2cc(CNCc3ccccc3)c3c(c2O1)CCC(C)(C)O3 | 1.4 | 9.5 | 0.6 | 12 | 5.6 | 13 | 0.47 | 4 | 0.4
CC1(C)CCc2cc(CNCCc3ccccc3)c(O)cc2O1 |  |  |  | 531 | 43 |  | 0.081 |  | 

Further compounds by falling IC50 [4], results first:

IC50 [4] [µM] | IC50 (Trypanosoma cruzi) [µM] | SMILES | selectivity ratio [1] | selectivity ratio [2] | IC50 at 70 h [3] [µM] | IC50 (Leishmania donovani) [µM] | IC50 (Plasmodium falciparum) [µM] | selectivity ratio [5] | selectivity ratio [6]
0.91 | 534 | CC1(C)C=Cc2cc(CNCc3ccccc3)c(O)cc2O1 | 0.1 | 356 | 57 | 65 | 0.16 | 63 | 0.9
0.83 | 5.2 | CC1(C)CCc2cc(CNCCCc3ccccc3)c3c(c2O1)CCC(C)(C)O3 | 0.5 | 7 | 2.6 | 11 | 0.37 | 3 | 0.2
0.7 | 9.1 | CC1(C)CCc2cc(CNCCc3ccccc3)c3c(c2O1)CCC(C)(C)O3 | 0.4 | 15 | 3.5 | 12 | 0.24 | 5 | 0.3
0.54 | 5.4 | CC1(C)CCc2cc(CNCCCCc3ccccc3)c3c(c2O1)CCC(C)(C)O3 | 0.6 | 15 | 3.2 | 4.9 | 0.21 | 6 | 0.7

Source: ChEMBL document CHEMBL5096178, “Synthesis and Biological Evaluation of Natural-Product-Inspired, Aminoalkyl-Substituted 1-Benzopyrans as Novel Antiplasmodial Agents” (J Med Chem, 2021)
